Assay results reported in PubChem BioAssay (NCI).
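These data come from cells grown in 96-well plates and exposed to compound for 48 hours at five concentrations. TGI denotes the concentration required for complete inhibition of growth.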

How the values were obtained:
Experiment in all cases: inhibition of tumour cell growth, NCI panel, 48 h
[1] = test system: 786-0 renal
[2] = test system: ACHN renal
[3] = test system: CAKI-1 renal
[4] = test system: COLO 205 colon
[5] = test system: DU-145 prostate
[6] = test system: HCC-2998 colon
[7] = test system: HOP-92 NSCLC
[8] = test system: HS 578T breast
[9] = test system: MDA-MB-231 breast
[10] = test system: MDA-N
[11] = test system: NCI-H460 lung
[12] = test system: NCI-H522 lung
[13] = test system: OVCAR-8 ovarian
[14] = test system: SF-539 CNS
[15] = test system: SK-MEL-5 melanoma
[16] = test system: SNB-75 CNS
[17] = test system: T-47D breast
[18] = test system: TK-10 renal
[19] = test system: CCRF-CEM leukemia
[20] = test system: K-562 leukemia

Compound | TGI [1] [µM] | TGI [2] [µM] | TGI [3] [µM] | TGI [4] [µM] | TGI [5] [µM] | TGI [6] [µM] | TGI [7] [µM] | TGI [8] [µM] | TGI [9] [µM] | TGI [10] [µM] | TGI [11] [µM] | TGI [12] [µM] | TGI [13] [µM] | TGI [14] [µM] | TGI [15] [µM] | TGI [16] [µM] | TGI [17] [µM] | TGI [18] [µM] | TGI [19] [µM] | TGI [20] [µM]
Clc1ccc(OCc2nnc(CCCCCCCCc3nnc(COc4ccc(Cl)cc4Cl)n3Nc3ccccc3)n2Nc2ccccc2)c(Cl)c1 | 31.2 | 46.1 | 49.3 | 3.38 | > 62.7 | 20.8 | 46.3 | 31.4 | 24.4 | 27.7 | 21.1 | 24.7 | 50.3 | 33.5 | 7.05 | 70.3 | > 100 | > 75.1 | – | –
Nc1ccc2c(=O)cc(-c3cccs3)[nH]c2n1 | > 100 | > 100 | > 100 | 6.95 | > 100 | 27.5 | > 100 | > 24.9 | > 100 | 1.73 | > 100 | – | > 60.5 | 6.17 | 21 | > 28.5 | > 100 | > 100 | > 44.9 | > 100
CCOP(=O)(OCC)/C(=C/NC(=S)c1ccncc1)C(=O)OC | > 100 | > 100 | > 100 | > 100 | > 100 | > 100 | > 100 | > 100 | > 100 | > 100 | > 100 | > 100 | > 100 | > 100 | > 100 | – | > 100 | > 100 | 64.8 | > 100
CC(C)(Oc1ccccc1)C(=O)Sc1c(-c2ccccc2)c(=O)n(-c2ccccc2)c(=S)n1-c1ccccc1 | > 100 | > 100 | > 100 | > 100 | > 100 | > 100 | > 100 | 85.4 | 73.8 | > 100 | 67.3 | 64.2 | 44.1 | 45.4 | – | > 100 | > 100 | > 100 | > 100 | > 100
COc1cc(/C=C2\N=C(c3ccccc3)N(c3nc4cc(C)c(C)cc4s3)C2=O)ccc1O | > 100 | > 100 | > 100 | > 100 | > 100 | 69.9 | > 100 | > 100 | > 100 | 37.7 | > 100 | – | > 100 | 60.9 | > 100 | > 100 | > 100 | > 100 | 39.1 | > 100
CSC1=Nc2ccccc2-c2nc3ccccc3cc2C1 | > 100 | > 100 | > 100 | > 100 | > 100 | > 100 | > 100 | > 100 | > 100 | > 100 | > 100 | > 100 | > 100 | > 100 | > 100 | – | > 100 | > 100 | > 100 | > 100
CN(C)CCCNc1ccc2c(=O)n(CCN(C)C)c(=O)n3c4ccccc4c(=O)c1c23 | 0.752 | 1.47 | 0.944 | 1.22 | 0.511 | 0.267 | 7.79 | 15.7 | 0.496 | 0.312 | 1.06 | 0.385 | 3.59 | 2.02 | 2.19 | 7.51 | 13.7 | 2.28 | > 100 | –
COc1ccc(-c2c3c(cc4cc5c(cc24)OCO5)C(=O)OC3)cc1OC | 13.9 | > 100 | > 63.4 | 11.4 | > 100 | 13.9 | > 23.4 | 68.8 | 25.4 | 13.3 | 15.9 | 5.95 | – | 24.6 | 0.68 | 44.7 | 3.46 | > 100 | > 52.1 | > 36.8
CCN1C(=O)C(=C/C=C/C=C2/N(C)c3ccccc3C2(C)C)C(=O)N(CC)C1=S | > 100 | > 100 | > 100 | > 100 | > 100 | – | > 100 | > 100 | > 100 | > 100 | > 100 | > 100 | > 100 | > 100 | – | > 100 | > 100 | > 100 | > 100 | > 100
CCN(CC)CCC(=O)c1ccc(C)cc1 | 34.3 | 41 | – | 63.1 | > 100 | > 100 | 36 | > 100 | 29 | 51.6 | > 100 | 32.7 | > 100 | > 100 | 25.8 | > 100 | 39.8 | – | 31.2 | 52.3
CCCCCCCCCCCCN1[C@H]2CCC[C@H]2C(O)[C@@H]2CCC[C@@H]21 (some centres undefined) | > 100 | > 100 | > 100 | > 100 | > 100 | > 100 | > 100 | > 100 | > 100 | > 100 | > 100 | – | > 100 | – | > 100 | > 100 | 88.2 | – | > 100 | > 100
COC(=O)c1ccc(NC(=O)O/N=C(\Cl)C(C)C)cc1 | 4.35 | 3.16 | 3.08 | 3.72 | 35.1 | 28.1 | 3.57 | > 66.7 | 15.6 | 22.8 | 41.2 | 1.74 | 32.5 | – | 16.1 | 26.3 | 5.02 | 10.3 | – | –
CC1C/C(=C\c2ccc(OC(=O)C(C)(C)C)cc2)C(=O)/C(=C/c2ccc(OC(=O)C(C)(C)C)cc2)C1 (centres undefined) | > 100 | > 100 | > 100 | > 100 | > 100 | > 100 | > 100 | > 100 | > 100 | > 100 | > 100 | 15.6 | 86.6 | > 100 | > 100 | – | > 100 | > 100 | 6.25 | > 100
Cc1c(S(=O)(=O)O)ccc(N=Nc2c(O)c(C(=O)O)cc3ccccc23)c1Cl | > 100 | > 100 | > 100 | > 100 | > 100 | > 100 | > 100 | > 100 | > 100 | > 100 | > 100 | > 100 | > 100 | – | > 100 | > 100 | > 100 | > 100 | > 100 | > 100
COc1ccc(S(=O)(=O)NC(CCC(=O)NN)C(=O)NN)cc1 (centres undefined) | > 100 | > 100 | > 100 | > 100 | > 100 | – | > 100 | > 100 | > 100 | > 100 | > 100 | > 100 | > 100 | > 100 | > 100 | > 100 | > 100 | > 100 | > 100 | > 100
O=C(CC(C(=O)c1cccs1)c1cccs1)c1ccsc1 (centres undefined) | > 100 | > 100 | > 100 | > 100 | > 100 | > 100 | – | > 100 | > 100 | 46.4 | > 100 | – | > 100 | > 100 | > 100 | > 100 | > 100 | > 100 | > 100 | > 100
Cc1occc1C(=S)Nc1ccc(Cl)c(C(=O)OC(C(C)C)C(C)C)c1 | 30.9 | 24.9 | 35.4 | 34.4 | 32 | 21.9 | 22.6 | 48.5 | 27.2 | 29 | 31.6 | 25.9 | 26.5 | 35 | 32 | – | 18.1 | 32.4 | 33 | –
C/C(=N\n1c(Cc2ccccc2)n[nH]c1=O)c1ccccc1 | > 100 | > 100 | > 100 | > 100 | > 100 | – | > 100 | > 100 | > 100 | > 100 | – | > 100 | > 100 | > 100 | > 100 | – | > 100 | > 100 | > 100 | > 100
Cc1cccc2c1C(=O)[C@](C)([C@]1(C)Nc3cccc(C)c3C1=O)N2 | > 100 | > 100 | 69.2 | 44.6 | > 100 | > 100 | 75.7 | 67.8 | > 100 | 63 | > 100 | 80.9 | 72.8 | 74.9 | > 100 | 41.2 | 87.9 | – | 48.3 | > 100
COc1ccc2nccc(SCC(=O)O)c2c1 | > 100 | > 100 | > 100 | – | > 100 | – | > 100 | > 100 | > 100 | > 100 | > 100 | > 100 | > 100 | – | > 100 | – | > 100 | > 100 | > 100 | > 100
COc1cc(S(=O)(=O)Nc2nc(-c3ccc(N4C(=O)/C(=C/C=C/c5ccccc5)N=C4c4ccccc4)cc3)cs2)ccc1Cl | > 100 | > 100 | > 100 | > 100 | > 100 | – | > 100 | > 100 | > 100 | > 100 | > 100 | > 100 | > 100 | > 100 | > 100 | > 100 | > 100 | > 100 | > 100 | > 100
CC1=NN(c2cccc(Cl)c2)C2(SCC(=O)N2c2nc3ccccc3s2)/C1=C\c1ccc(N(C)C)cc1 (centres undefined) | > 100 | 84.1 | > 100 | – | > 100 | > 100 | 79.9 | 75.7 | > 100 | > 100 | > 100 | > 100 | > 100 | > 100 | > 100 | – | > 100 | > 100 | > 100 | > 100
CN(C)CCCn1c(Cc2ccc(Cl)cc2)nc2cc(C(F)(F)F)ccc21 | 27 | 26 | 27.3 | 29.3 | 27.2 | 3.85 | 22.9 | 33.6 | 26.5 | 25.4 | 26 | 28.1 | 33.4 | 32.2 | 32.5 | – | 27.2 | 29.6 | > 43.7 | > 32.5
Cc1cc(C)c(S(=O)(=O)N2CCCN(S(=O)(=O)c3c(C)cc(C)cc3C)OCCCO2)c(C)c1 | > 100 | > 100 | > 100 | > 100 | > 100 | – | > 100 | > 100 | > 100 | > 100 | > 100 | > 100 | > 100 | – | > 100 | > 100 | > 100 | > 100 | > 100 | > 100
O=C1/C(=C/c2ccc(OC(=O)c3ccccc3)cc2)CCC/C1=C\c1ccc(OC(=O)c2ccccc2)cc1 | > 100 | > 100 | > 100 | > 100 | > 100 | > 100 | > 100 | > 100 | > 100 | > 100 | > 100 | > 100 | > 100 | > 100 | > 100 | > 100 | > 100 | > 100 | > 100 | –
